From US9306235B2, “Redox flow battery” (SAMSUNG ELECTRONICS CO., LTD., priority 2010, dated 2016)

Assay: Evaluation of organic electrolyte solubility together with a supporting electrolyte
Assay type: physicochemical
Conditions: generation of precipitates identified
Procedure: In the case where an organic electrolyte is used together with a supporting electrolyte, solubility of the organic electrolyte is evaluated. As the supporting electrolyte, TEABF4 and SBPBF4 are added to each of 0.0M, 0.2M, and 0.5M propylene carbonate aliquots, and then 1.2M Fe(bpy)3(BF4)2 is added to a final volume of 10 mL. The generation of precipitates is identified for each case.

[1] = supporting electrolyte 0.0 Mole (0.0M) in propylene carbonate
[2] = supporting electrolyte 0.2 Mole (0.2M) in propylene carbonate
[3] = supporting electrolyte 0.5 Mole (0.5M) in propylene carbonate

Row | Structure (SMILES) | Solubility of 1.2M Fe(bpy)3(BF4)2 [1] | Solubility of 1.2M Fe(bpy)3(BF4)2 [2] | Solubility of 1.2M Fe(bpy)3(BF4)2 [3]
1 | C1CC[N+]2(C1)CCCC2.F[B-](F)(F)F [SBPBF4, spiro-(1,1′)-bipyrrolidiniumtetrafluoroborate] | Soluble | Soluble | Soluble
2 | CC[N+](CC)(CC)CC.F[B-](F)(F)F [TEABF4, tetraethylammoniumtetrafluoroborate] | Soluble | Precipitation | Precipitation
